# PubChem BioAssay (NCI)
# “And” between values parts separate entries of the source, which are not always exact repeats. Identical values can stand only once.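 Five concentrations, 48 hours, 96-well plates. GI50 is the concentration that inhibits growth by half. TGI: concentration producing complete growth inhibition.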
# Assays:
# Assay in all cases: DTP human tumour cell line panel, 48 h
# NCI-H460 lung = test system: NCI-H460 lung
# SF-539 CNS = test system: SF-539 CNS
# LOX IMVI melanoma = test system: LOX IMVI melanoma
# MDA-MB-435 = test system: MDA-MB-435
# CCRF-CEM leukemia = test system: CCRF-CEM leukemia
# HL-60(TB) leukemia = test system: HL-60(TB) leukemia
# SR leukemia = test system: SR leukemia
# PC-3 prostate = test system: PC-3 prostate
# BT-549 breast = test system: BT-549 breast
# MOLT-4 leukemia = test system: MOLT-4 leukemia
SMILES,GI50 (NCI-H460 lung),TGI (NCI-H460 lung),GI50 (SF-539 CNS),TGI (SF-539 CNS),GI50 (LOX IMVI melanoma),TGI (LOX IMVI melanoma),GI50 (MDA-MB-435),TGI (MDA-MB-435),GI50 (CCRF-CEM leukemia),TGI (CCRF-CEM leukemia),GI50 (HL-60(TB) leukemia),TGI (HL-60(TB) leukemia),GI50 (SR leukemia),TGI (SR leukemia),GI50 (PC-3 prostate),TGI (PC-3 prostate),GI50 (BT-549 breast),TGI (BT-549 breast),GI50 (MOLT-4 leukemia),TGI (MOLT-4 leukemia)
CCOc1nc(-c2ccccc2)cc2c(O)c(-c3nnco3)[nH]c(=O)c12,4.01 µM,> 100 µM,4.39 µM,> 47.1 µM,4.4 µM,> 100 µM,8.48 µM,> 100 µM,3.04 µM,> 100 µM,5.86 µM,> 100 µM,3.85 µM,> 100 µM,4.3 µM,> 100 µM,3.23 µM,> 100 µM,4.9 µM,> 100 µM
CNCCNc1c2c(c(NCCNC)c3c(CN(C)C)c[nH]c13)C(=O)c1ccccc1C2=O,1.46 µM,11.2 µM,4.46 µM,17.1 µM,2.35 µM,6.04 µM,2.5 µM,10.7 µM,0.716 µM,34.2 µM,4.14 µM,> 100 µM,,,0.969 µM,5.64 µM,6.04 µM,14.4 µM,0.434 µM,
C[C@H]1c2cccc(O)c2C(O)=C2C(=O)[C@]3(O)C(O)=C(C(N)=O)C(=O)[C@@H](N(C)C)[C@@H]3[C@@H](O)[C@@H]21,2.96 µM,10.2 µM,3.88 µM,14.8 µM,2.75 µM,10 µM,3.01 µM,12.6 µM,,,2.3 µM,6.56 µM,1.98 µM,4.67 µM,3 µM,12.8 µM,3.12 µM,9.88 µM,3.57 µM,15 µM
COc1cc(C(=O)c2cc(C)c3[nH]c4ccc(Cl)cc4c3c2C)cc(OC)c1OC,0.035 µM,3.74 µM,0.0284 µM,0.461 µM,0.0384 µM,5.52 µM,0.0249 µM,0.0733 µM,0.0399 µM,> 100 µM,0.0279 µM,0.0901 µM,0.0493 µM,97.1 µM,0.146 µM,13.7 µM,0.0423 µM,4.55 µM,0.046 µM,> 47.4 µM
C#Cc1cccc(Nc2ncnc3cc(OC)c(OCCCCCCC(=O)NO)cc23)c1,0.444 µM,4.31 µM,0.198 µM,1.34 µM,0.195 µM,1.81 µM,0.145 µM,0.528 µM,0.0404 µM,5.85 µM,0.334 µM,1.7 µM,0.0219 µM,2.09 µM,0.273 µM,5.38 µM,0.783 µM,5.69 µM,0.0864 µM,1.93 µM
CNCCCn1cc(C2=C(c3cn(C)c4ccccc34)C(=O)NC2=O)c2ccccc21,4.53 µM,9.19 µM,3.59 µM,7.06 µM,3.93 µM,8.28 µM,3.31 µM,6.9 µM,4.91 µM,20.4 µM,5.55 µM,13.5 µM,3.94 µM,16.2 µM,4.01 µM,14.6 µM,4.81 µM,8.83 µM,5 µM,19.1 µM
COc1ccc(N2C(=O)C(c3ccccc3)(c3ccccc3)C23C(=O)N(C)c2ccccc23)cc1 (stereo not drawn),> 100 µM,> 100 µM,> 100 µM,> 100 µM,> 100 µM,> 100 µM,> 100 µM,> 100 µM,> 100 µM,> 100 µM,> 100 µM,> 100 µM,> 100 µM,> 100 µM,> 100 µM,> 100 µM,> 100 µM,> 100 µM,> 100 µM,> 100 µM
CC[C@]12C=CCN3CC[C@@]4(c5ccc(OC)cc5N(C)[C@H]4[C@@](O)(C(=O)OC)[C@@H]1OC(=O)CCC[P+](c1ccccc1)(c1ccccc1)c1ccccc1)[C@@H]32,1.38 µM and 1.31 µM,5.82 µM and 11 µM,0.648 µM and 0.769 µM,5.78 µM and 4.78 µM,0.923 µM and 0.662 µM,6 µM and 2.18 µM,0.239 µM and 0.348 µM,0.879 µM and 1.23 µM,0.64 µM and 0.609 µM,5.44 µM and 2.68 µM,0.203 µM and 0.195 µM,0.76 µM and 0.518 µM,0.379 µM and 0.438 µM,7.07 µM and 1.97 µM,0.224 µM and 0.345 µM,5.13 µM and 2.59 µM,0.284 µM and 0.234 µM,1.86 µM and 1.6 µM,1.04 µM and 1.1 µM,4.75 µM and 3.68 µM
Clc1coc2nc3ccccc3c(Nc3ccc4c(c3)OCO4)c12,1.98 µM,14.5 µM,2.46 µM,7.42 µM,2.01 µM,13.6 µM,0.62 µM,1.46 µM,1.54 µM,6.96 µM,0.808 µM,8.82 µM,0.201 µM,0.938 µM,1.93 µM,13.5 µM,5.19 µM,27 µM,0.803 µM,22 µM
Cn1cc(C2=C(c3ccc4ccccc4c3)C(=O)NC2=O)c2ccccc21,> 25 µM,> 25 µM,> 25 µM,> 25 µM,> 25 µM,> 25 µM,0.885 µM,> 13.6 µM,> 25 µM,> 25 µM,> 21.4 µM,> 25 µM,3.11 µM,> 25 µM,> 25 µM,> 25 µM,> 25 µM,> 25 µM,> 20.1 µM,> 25 µM
CCC[CH2][Sn]([CH2]CCC)([CH2]CCC)[O]C(=O)CC,0.135 µM,0.281 µM,0.185 µM,0.38 µM,,,0.178 µM,0.458 µM,,,0.163 µM,0.538 µM,,,0.189 µM,0.426 µM,0.15 µM,0.344 µM,0.247 µM,1 µM
O=C1NC(=Nc2ccccc2)S/C1=C\c1ccc2ncccc2c1,> 6.82 µM,> 25 µM,> 6.25 µM,> 25 µM,> 25 µM,> 25 µM,0.62 µM,1.88 µM,> 25 µM,> 25 µM,1.42 µM,> 25 µM,0.64 µM,> 25 µM,1.67 µM,> 25 µM,> 25 µM,> 25 µM,> 25 µM,> 25 µM
C/C(=C\CCc1ccoc1)CC/C=C(\C)CCCC1=CC(=O)OC1,5.21 µM,27.8 µM,13.2 µM,40.1 µM,4.84 µM,17.2 µM,5.76 µM,34.1 µM,,,6.3 µM,32.7 µM,3.45 µM,17.1 µM,3.2 µM,24.9 µM,6.24 µM,25.9 µM,3.94 µM,15.4 µM
C/C1=C\CC[C@@]2(C)O[C@@H]2[C@H]2OC(=O)[C@@H](CN(C)C)[C@@H]2CC1,32.8 µM,> 100 µM,2.45 µM,5.62 µM,10.2 µM,29.9 µM,7.68 µM,25.3 µM,2.11 µM,5.61 µM,1.46 µM,7.24 µM,,,14.1 µM,33.7 µM,4.8 µM,26.9 µM,2.89 µM,9.82 µM
CC/C(=C(/c1ccc(OCCN(C)C)cc1)c1ccc(OC(=O)CCCCC(=O)c2c(C)[nH]c(/C=C3\N=C(c4ccc[nH]4)C=C3OC)c2C)cc1)c1ccccc1,3.99 µM,15.5 µM,7.32 µM,20.6 µM,2.05 µM,5.14 µM,7 µM,46.1 µM,0.32 µM,> 100 µM,18 µM,41.9 µM,3.05 µM,21 µM,4.6 µM,20.6 µM,3.57 µM,17 µM,1.73 µM,24.8 µM
CCOC(=O)/C=C/C(C(=O)/C=C/c1ccc(OC2CCCCO2)c(OC)c1)=C(O)\C=C\c1ccc(OC2CCCCO2)c(OC)c1 (stereo not drawn),11.9 µM,50.5 µM,20.3 µM,53.1 µM,1.63 µM,3.32 µM,3.23 µM,13.6 µM,2.69 µM,8.35 µM,3.01 µM,> 100 µM,,,3.85 µM,> 100 µM,5.18 µM,28.4 µM,,
Cc1c2cccnc2c(C)c2c1c1cc(CO)ccc1n2C,1.23 µM,6.12 µM,2.49 µM,11.7 µM,1.5 µM,4.82 µM,3.06 µM,13.7 µM,1.87 µM,45.7 µM,,,,,2.67 µM,33 µM,3.42 µM,20.1 µM,1.64 µM,22.5 µM
C[As](C)SC1OC(CO)C(O)C1O (stereo not drawn),1.46 µM,11.7 µM,0.222 µM,0.749 µM,0.445 µM,1.75 µM,0.154 µM,0.746 µM,0.259 µM,1.13 µM,0.454 µM,,0.213 µM,3.13 µM,0.656 µM,9.79 µM,0.628 µM,3.21 µM,0.174 µM,0.957 µM
CC(=O)OC1Oc2ccccc2-c2oc(=O)c(-c3cc(=O)oc4cc(O)ccc34)cc21 (stereo not drawn),21.5 µM,73.7 µM,17.4 µM,38.2 µM,17.8 µM,37.5 µM,18.4 µM,54.4 µM,9.38 µM,40.8 µM,21.8 µM,> 100 µM,2.65 µM,6.5 µM,16.2 µM,55.6 µM,15.3 µM,41.4 µM,4.33 µM,20.1 µM
O=c1n(CC2CO2)c(=O)n(CC2CO2)c(=O)n1CC1CO1 (stereo not drawn),6.61 µM and 0.743 µM,32 µM and 29.6 µM and 12.2 µM,2.92 µM,41.6 µM and 24.7 µM,12.3 µM and 6.12 µM,47.5 µM and 102 µM and > 100 µM,,63.8 µM and > 100 µM,6.05 µM and 2.92 µM,223 µM and > 100 µM,5.21 µM and 2.39 µM,28.1 µM and > 100 µM,13.2 µM and 1.5 µM,877 µM and > 100 µM,20.3 µM,75.4 µM and 92.2 µM and > 100 µM,13.6 µM,67 µM and > 100 µM,5.09 µM and 2.95 µM,210 µM and > 100 µM
C=C(C=O)C1CCC2(C(=O)O)CCC3(C)C(CCC4C5(C)CCC(O)C(C)(C)C5CCC43C)C12 (stereo not drawn),2.05 µM,4.43 µM,2.83 µM,8.06 µM,1.57 µM,3.11 µM,2.74 µM,24.3 µM,2.68 µM,> 46.6 µM,4.1 µM,> 100 µM,2.23 µM,> 100 µM,2.76 µM,23.2 µM,1.68 µM,6.67 µM,3.79 µM,> 100 µM
NC(=NCCCOc1ccc(Cl)cc1)Nc1ccc(C(F)(F)F)cc1,2 µM,4.97 µM,,,1.46 µM,2.77 µM,1.73 µM,3.45 µM,2.59 µM,9.75 µM,1.59 µM,3.77 µM,1.77 µM,5.95 µM,1.67 µM,5.25 µM,2.32 µM,6.31 µM,1.41 µM,5 µM
COc1ccc2c(c1)CCC1C2CC[C@@]2(C)C1CC1=CC(COC(C)=O)C3C(=O)c4ccccc4C(=O)C3C12 (stereo partly drawn),> 100 µM,> 100 µM,> 100 µM,> 100 µM,> 100 µM,> 100 µM,> 100 µM,> 100 µM,> 100 µM,> 100 µM,76.3 µM,> 100 µM,> 100 µM,> 100 µM,48.4 µM,> 100 µM,> 100 µM,> 100 µM,> 100 µM,> 100 µM
Clc1ccc2c(NCCCNc3nccc(Nc4ccc(Br)cc4)n3)ccnc2c1,1.76 µM,3.44 µM,1.81 µM,3.37 µM,,,1.55 µM,2.92 µM,,,2.13 µM,4.94 µM,,,1.74 µM,3.56 µM,1.68 µM,3.4 µM,,
C=CC1CC12C(=O)C1OC2(C)C2C(=O)c3cc4ccccc4cc3C(=O)C12 (stereo not drawn),26.9 µM,> 100 µM,30.2 µM,96.9 µM,,,26.3 µM,77.8 µM,,,24.7 µM,65.3 µM,,,20.3 µM,> 100 µM,25 µM,62.6 µM,15.8 µM,> 100 µM
O=c1c2ccccc2[se]n1-c1cccnc1,,> 100 µM,,56.5 µM,,56.8 µM,,46.4 µM,,,,91.5 µM,,> 100 µM,,48.6 µM,,84.6 µM,,> 100 µM
